Test results published in ChEMBL document CHEMBL4814029, “Design, synthesis, and structure-activity relationship of programmed cell death-1/programmed cell death-ligand 1 interaction inhibitors bearing a benzo[d]isothiazole scaffold” (Eur J Med Chem, 2021).

Test system: not listed separately
Experiment: Inhibition of PD-1/PDL-1-mediated immune checkpoint using CHO cells expressing PDL-1/TCRa and human Jurkat cells expressing PD-1/NFAT-Luc assessed as Jurkat T lymphocyte activation by measuring maximal luminescence value measured after 6 hrs by luciferase reporter gene based luminescence assay
Conditions: not given

| RLU | Structure (SMILES) |
| --- | --- |
| 2240 | Cc1c(COc2cc(OCc3cccc(C#N)c3)c(CN3C[C@H](O)C[C@@H]3C(=O)O)cc2Cl)cccc1-c1ccc2c(c1)OCCO2 |
| 3260 | O=C(O)[C@H](CO)NCc1ccc2c(Nc3cccc(-c4ccc5c(c4)OCCO5)c3Cl)nsc2c1 |

Test system: not listed separately
Experiment: Growth inhibition of CHO cells expressing PDL-1/TCRa incubated for 24 hrs by Cell Titer-Glo luminescent cell viability assay
Assay type: cell-based, Cricetulus griseus
Conditions: chinese hamster

| Structure (SMILES) | GI50 at 24 h |
| --- | --- |
| Cc1c(COc2cc(OCc3cccc(C#N)c3)c(CN3C[C@H](O)C[C@@H]3C(=O)O)cc2Cl)cccc1-c1ccc2c(c1)OCCO2 | > 30000 nM |
| O=C(O)[C@H](CO)NCc1ccc2c(Nc3cccc(-c4ccc5c(c4)OCCO5)c3Cl)nsc2c1 | > 30000 nM |

Test system: not listed separately
Experiment: Growth inhibition of CHO cells expressing PDL-1/TCRa measured after 24 hrs co-culturing with human Jurkat cells expressing PD-1/NFAT-Luc in presence of compound by Cell Titer-Glo luminescent cell viability assay
Assay type: cell-based, Cricetulus griseus
Conditions: chinese hamster

| Structure (SMILES) | GI50 at 24 h |
| --- | --- |
| Cc1c(COc2cc(OCc3cccc(C#N)c3)c(CN3C[C@H](O)C[C@@H]3C(=O)O)cc2Cl)cccc1-c1ccc2c(c1)OCCO2 | > 30000 nM |
| O=C(O)[C@H](CO)NCc1ccc2c(Nc3cccc(-c4ccc5c(c4)OCCO5)c3Cl)nsc2c1 | > 30000 nM |

Biological target: Programmed cell death 1 ligand 1 (Homo sapiens, UniProt Q9NZQ7)
Sequence (Q9NZQ7 whole entry): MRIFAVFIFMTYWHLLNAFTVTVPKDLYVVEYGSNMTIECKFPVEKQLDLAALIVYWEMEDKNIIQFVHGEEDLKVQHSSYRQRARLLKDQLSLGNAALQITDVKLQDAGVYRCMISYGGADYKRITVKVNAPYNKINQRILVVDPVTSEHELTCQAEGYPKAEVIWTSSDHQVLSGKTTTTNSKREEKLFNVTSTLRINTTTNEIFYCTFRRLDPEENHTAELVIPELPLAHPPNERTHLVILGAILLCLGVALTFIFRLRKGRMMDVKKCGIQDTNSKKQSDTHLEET
Experiment: Inhibition of PDL1 (unknown origin)
Conditions: not given

| Structure (SMILES) | IC50 |
| --- | --- |
| N#Cc1c(NC(=O)c2nc3c(s2)CNCC3)cccc1-c1ccc2c(c1)OCCO2 | < 100 nM |
| Cc1cc(C(=O)Nc2cccc(-c3ccc4c(c3)OCCO4)c2C)ncc1CN1CCCC[C@H]1C(=O)O | < 10 nM |
| C[C@@H](O)[C@H](NCc1cc(Cl)c(OCc2cccc(-c3ccccc3)c2Br)cc1OCC1CC1)C(=O)O | 10.2 nM |
| N#Cc1cncc(COc2cc(OC3CCc4c(-c5ccccc5)cccc43)c(Cl)cc2CN[C@@H](CO)C(=O)O)c1 (stereo partly drawn) | < 100 nM |

Test system: not listed separately
Experiment: Inhibition of PD-1/PDL-1-mediated immune checkpoint using CHO cells expressing PDL-1/TCRa and human Jurkat cells expressing PD-1/NFAT-Luc assessed as Jurkat T lymphocyte activation measured after 6 hrs by luciferase reporter gene based luminescence assay
Conditions: not given

| EC50 | inhibition | Structure (SMILES) |
| --- | --- | --- |
| 3100 nM | Dose-Dependent Effect | Cc1c(COc2cc(OCc3cccc(C#N)c3)c(CN3C[C@H](O)C[C@@H]3C(=O)O)cc2Cl)cccc1-c1ccc2c(c1)OCCO2 |
| 5600 nM | Dose-Dependent Effect | O=C(O)[C@H](CO)NCc1ccc2c(Nc3cccc(-c4ccc5c(c4)OCCO5)c3Cl)nsc2c1 |

Biological target: Programmed cell death protein 1/Programmed cell death 1 ligand 1 (Homo sapiens, UniProt Q15116+Q9NZQ7)
Sequence (Q15116 whole entry): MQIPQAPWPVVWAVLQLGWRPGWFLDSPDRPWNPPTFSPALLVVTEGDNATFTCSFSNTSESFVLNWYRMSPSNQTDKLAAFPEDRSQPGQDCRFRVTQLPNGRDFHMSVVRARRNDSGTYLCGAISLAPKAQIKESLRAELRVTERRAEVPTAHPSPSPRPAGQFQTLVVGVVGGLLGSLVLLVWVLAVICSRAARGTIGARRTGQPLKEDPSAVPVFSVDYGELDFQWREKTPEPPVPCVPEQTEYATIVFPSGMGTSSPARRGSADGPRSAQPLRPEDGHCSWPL
Sequence (Q9NZQ7 whole entry): as the sequence (Q9NZQ7 whole entry) above
Experiment: Inhibition of Tag2-PD-1/Tag1-PDL-1 (unknown origin) interaction incubated for 15 mins by TR-FRET assay
Assay type: protein-complex assay
Conditions: not given

| Structure (SMILES) | IC50 |
| --- | --- |
| COC[C@H](NCc1ccc2c(Nc3cccc(-c4ccc5c(c4)OCCO5)c3Cl)nsc2c1)C(=O)O | 79.1 nM |
| O=C(O)C1CCN(Cc2ccc3c(Nc4cccc(-c5ccc6c(c5)OCCO6)c4Cl)nsc3c2)C1 (racemic) | 73.3 nM |
| O=C(O)C1CN(Cc2ccc3c(Nc4cccc(-c5ccc6c(c5)OCCO6)c4Cl)nsc3c2)C1 | 72.6 nM |
| O=C(O)[C@H](CO)NCc1ccc2c(Nc3cccc(-c4cccc(O)c4)c3Cl)nsc2c1 | 143 nM |
| O=C(O)[C@H](CO)NCc1ccc2c(Nc3cccc(-c4ccc5c(c4)OCCO5)c3)nsc2c1 | > 1000 nM |
| O[C@@H]1CCN(Cc2ccc3c(Nc4cccc(-c5ccc6c(c5)OCCO6)c4Cl)nsc3c2)C1 | 106 nM |
| O=C(O)[C@H](CO)NCc1ccc2c(Nc3cccc(-c4ccc5c(c4)OCO5)c3Cl)nsc2c1 | 34.7 nM |
| O=C(O)C1CCCN(Cc2ccc3c(Nc4cccc(-c5ccc6c(c5)OCCO6)c4Cl)nsc3c2)C1 (racemic) | 517 nM |
| C[C@H](NCc1ccc2c(Nc3cccc(-c4ccc5c(c4)OCCO5)c3Cl)nsc2c1)C(=O)O | 44.4 nM |
| CC(C)[C@H](NCc1ccc2c(Nc3cccc(-c4ccc5c(c4)OCCO5)c3Cl)nsc2c1)C(=O)O | 73.7 nM |
| O=C(O)CCCCOc1ccc(-c2cccc(Nc3nsc4cc(CN[C@@H](CO)C(=O)O)ccc34)c2Cl)cc1 | > 1000 nM |
| O=C(O)[C@H](CO)NCc1ccc2c(Nc3cccc(-c4cccc5c4CCN5CCCN4CCC(O)C4)c3Cl)nsc2c1 (stereo partly drawn) | 231 nM |
| O=C(O)[C@@H](CO)NCc1ccc2c(Nc3cccc(-c4ccc5c(c4)OCCO5)c3Cl)nsc2c1 | 10.8 nM |
| OC1CCN(Cc2ccc3snc(Nc4cccc(-c5ccc6c(c5)OCCO6)c4Cl)c3c2)CC1 | 854 nM |
| O=C(O)[C@H](CO)NCc1ccc2c(Nc3cccc(-c4ccc5c(c4)OCCO5)c3Cl)nsc2c1 | 8.5 nM |
| O=C(O)CNCc1ccc2c(Nc3cccc(-c4ccc5c(c4)OCCO5)c3Cl)nsc2c1 | 35.6 nM |
| OC1CCCN(Cc2ccc3snc(Nc4cccc(-c5ccc6c(c5)OCCO6)c4Cl)c3c2)C1 (racemic) | 327 nM |
| Cc1c(Nc2nsc3cc(CN[C@@H](CO)C(=O)O)ccc23)cccc1-c1ccc2c(c1)OCCO2 | 78 nM |
| O[C@H]1CCN(Cc2ccc3c(Nc4cccc(-c5ccc6c(c5)OCCO6)c4Cl)nsc3c2)C1 | 109 nM |
| O=C(O)[C@H](CO)NCc1ccc2c(Nc3cccc(-c4ccccc4)c3Cl)nsc2c1 | 40.3 nM |

| Structure (SMILES) | IC50 |
| --- | --- |
| OCC(CO)NCc1ccc2c(Nc3cccc(-c4ccc5c(c4)OCCO5)c3Cl)nsc2c1 | 58.3 nM |
| O=C(O)C1CCCN1Cc1ccc2c(Nc3cccc(-c4ccc5c(c4)OCCO5)c3Cl)nsc2c1 (racemic) | 110 nM |
| O=C(O)C1CCN(Cc2ccc3c(Nc4cccc(-c5ccc6c(c5)OCCO6)c4Cl)nsc3c2)CC1 | 60.1 nM |
| CN(CC(=O)O)Cc1ccc2c(Nc3cccc(-c4ccc5c(c4)OCCO5)c3Cl)nsc2c1 | 147 nM |
| O=C(O)[C@@H]1C[C@@H](O)CN1Cc1ccc2c(Nc3cccc(-c4ccc5c(c4)OCCO5)c3Cl)nsc2c1 | 17.7 nM |
| O=C(O)C[C@H](NCc1ccc2c(Nc3cccc(-c4ccc5c(c4)OCCO5)c3Cl)nsc2c1)C(=O)O | 474 nM |
| CC1(O)CCN(Cc2ccc3c(Nc4cccc(-c5ccc6c(c5)OCCO6)c4Cl)nsc3c2)C1 (racemic) | 98.7 nM |
| OC1CCN(Cc2ccc3c(Nc4cccc(-c5ccc6c(c5)OCCO6)c4Cl)nsc3c2)C1 (racemic) | 58.4 nM |
| OC1CCCN(Cc2ccc3c(Nc4cccc(-c5ccc6c(c5)OCCO6)c4Cl)nsc3c2)C1 (racemic) | 164 nM |
| C[C@@H](NCc1ccc2c(Nc3cccc(-c4ccc5c(c4)OCCO5)c3Cl)nsc2c1)C(=O)O | 43.4 nM |
| O=C(O)C1CCN1Cc1ccc2c(Nc3cccc(-c4ccc5c(c4)OCCO5)c3Cl)nsc2c1 (racemic) | 131 nM |
| O=C(O)[C@H](CO)NCc1ccc2c(Nc3cccc(-c4ccc5c(c4)OCCO5)c3F)nsc2c1 | 486 nM |
| OC1CCN(Cc2ccc3c(Nc4cccc(-c5ccc6c(c5)OCCO6)c4Cl)nsc3c2)CC1 | 158 nM |
| COc1ccc(-c2cccc(Nc3nsc4cc(CN[C@@H](CO)C(=O)O)ccc34)c2Cl)cc1OC | > 1000 nM |
| COc1c(Nc2nsc3cc(CN[C@@H](CO)C(=O)O)ccc23)cccc1-c1ccc2c(c1)OCCO2 | > 1000 nM |
| O=C(O)[C@H](CO)NCc1ccc2c(Nc3cccc(-c4ccc5nccnc5c4)c3Cl)nsc2c1 | > 1000 nM |
| O=C(O)CCCCOc1cccc(-c2cccc(Nc3nsc4cc(CN[C@@H](CO)C(=O)O)ccc34)c2Cl)c1 | > 1000 nM |
| OC1CCN(Cc2ccc3snc(Nc4cccc(-c5ccc6c(c5)OCCO6)c4Cl)c3c2)C1 (racemic) | 251 nM |
| CC1(O)CCN(Cc2ccc3snc(Nc4cccc(-c5ccc6c(c5)OCCO6)c4Cl)c3c2)C1 (racemic) | 177 nM |
